According to US8420606B2, “Method of utilizing physiological activity of rare saccharide and composition containing rare saccharide” (priority 2002, dated 2013):
“Also recorded” adds a separate entry of the source.

Experiments:
HL-60 = test: blood-system cancer cell strain proliferation, Coulter Counter, HL60; type: cell-based; settings: for HL60 cell number relative to glucose: seventh day, glucose = 100%; for HL60 proliferation inhibitory effect: 0.05-50 mM, 7 days, D-glucose control
Experimental: (§1) (2) Method: Total 6 kinds of cell strains, i.e., Myeloid (HL-60, THP-1, KG-1), T-cell (MT-2), and B-Cell (Daudi, KS-1), and 3 kinds of rare saccharides (i.e., D-psicose, D-altrose, and D-allose), were employed. The culture medium and the cells were prepared to be 1 mL in total and 1×10^5 in number, respectively. Then, the cell number at each of fourth day and seventh day was counted by using a Coulter Counter. Each rare saccharide was added at concentrations of 0.05, 0.5, 5 and 50 mM, while D-glucose was used as a control.
(§2) Culture Medium: FBS 10% added RPMI1460
(§3) Cultivation Conditions: 37° C., 5% CO2
(§4) Cultivation Vessel: FALCON, MULTIWELL, 12 wells
(§5) Number of Cultivation Days: 7 days
(§6) Saccharides Concentration: 0.05, 0.5, 5, 50 mM

Daudi = test: blood-system cancer cell strain proliferation, Coulter Counter, Daudi; type: cell-based; settings: for Daudi-cell proliferation inhibitory effect: 0.05-50 mM, 7 days, D-glucose control; for Daudi cell number relative to glucose: seventh day, glucose = 100%
Experimental: as §1, §2, §3, §4, §5, §6

microglia migration = test: brain ischemia model, number of appearing microglias; type: in vivo, gerbil; settings: 200 mg/kg femoral vein 5 minutes before and immediately after 5 minutes ischemia; after 1 week
Experimental: In this Example 11 described below, an influence of ketohexose belonging to the rare saccharides upon the number of microglias appearing with ischemia is examined. […] D-psicose was used as the ketohexose belonging to the rare saccharides. As a brain ischemia model, the bilateral common carotid artery of a male gerbil with weight of about 70 g was shut off for 5 minutes. In this model, neurons in the hippocampus CA1 area of a brain are peculiarly brought to ischemic cell necrosis.
Comparative studies were made on three exemplified groups, i.e., one group not subjected to ischemia (control: Sham), another group subject to ischemia+treatment with physiological saline, and still another group subject to ischemia+treatment with D-psicose.
The D-psicose treatment was performed through the steps of dissolving D-psicose in physiological saline to prepare a D-psicose solution with concentration of 200 mg/mL, and administrating the D-psicose solution to the ischemia model through the femoral vein in units of 200 mg/kg at 5 minuets before ischemia and immediately after the ischemia. The physiological saline treatment was performed by administering only physiological saline instead of the D-psicose solution. After 1 week from the ischemia, perfusion fixation was made and a frozen brain sample of 20 μm was prepared, followed by hematoxyline eosin dyeing.

[1] = system: Pancreas β-cell strains INS-1; test: insulin secretion from pancreas β-cell strain, ELISA; type: cell-based, rat; settings: for concentration at which insulin secretion stimulus reached a plateau / insulin secretion into culture medium: saccharide alone; for insulin secretion into culture medium: 2.8-16.7 mM
Experimental: Pancreas β-cell strains INS-1 derived from insulinoma were cultured under the culture medium condition of (DMEM +10% FBS) in accordance with the ordinary method. The INS-1 cells at density of about 70% were pipitted into a 96-well culture dish, and the following experiments were performed. D-psicose was used as the ketohexose belonging to the rare saccharides.
After cultivation for 24 hours with the glucose concentration in the culture medium set to 2.8 mM, 5.6 mM, 11.2 mM and 16.7 mM, the insulin concentration in the culture medium was measured by using an ELISA (insulin kit).
By using the ELISA method, the insulin concentration in the culture medium was measured while the D-psicose concentration in the culture medium was changed to 0 mM, 2.8 mM, 5.6 mM, 11.2 mM and 16.7 mM.

rat intestinal tract = test: glucose absorption in reversed intestinal tract; settings: D-psicose at concentration comparable to that of glucose
Experimental: To clarify an influence of D-psicose upon the absorption of glucose, the influence of D-psicose upon the absorption of glucose was analyzed by using a rat intestinal tract. The absorption of glucose was analyzed by measuring concentrations outside and inside a mucous membrane of an intestinal tract by a quantitative manner based on the glucose oxidase method. How the absorption of glucose changed under coexistence of D-psicose and glucose was measured. Further, how a sugar absorption system changed was analyzed by using an intestinal tract of a rat administrated with D-psicose for a long time. […] After the lapse of a certain time, the solution on the serous membrane side was sampled and the glucose concentration was measured. By adding D-psicose at various concentrations, an influence of D-psicose upon transport of glucose from the mucous membrane side to the serous membrane side was studied.

[2] = influence of psicose upon hyperglycemia; type: in vivo, rat; settings: 0.5 g/kg intravenous; compared with deoxyglucose control
Experimental: IVGTT was conducted on 8-week old male SD rats by inserting a catheter through the jugular vein, injecting 50% glucose at intervals of 20 minutes to make a hyperglycemic state, and then injecting psicose and deoxyglucose. A rare saccharide was administrated to 1 rat, and deoxyglucose was administrated to 1 rat.
Perform intravenous injection (IV) at 0.5 g/kg (i.e., 0.5 g/1000 g=500 mg/1000 g=0.5 mg/g).
Prepare rare-saccharide and deoxyglucose solutions in concentration of 0.5 g/mL (i.e., 0.5 g/1000 ul=500 mg/1000 ul=0.5 mg/ul). Prepare 2 mL of solution for each concentration.
Intravenously inject 200 ul of the solution for a 200 g rat.
Intravenously inject 250 ul of the solution for a 250 g rat.
Inject 300 ul of physiological saline after the intravenous injection.
Collect 150 ul of blood sample.
Collect blood at 9 points in time, i.e., 0, 5, 10, 15, 20, 25, 30, 45 and 60 minutes.

[3] = system: temporary eye ischemia model (rat); test: retina ischemia-reperfusion, glutamate by microdialysis; type: in vivo; settings: D-allose 200 mg/kg intravenous before the ischemia
Experimental: (1) Purpose: This Example 6 is intended to study an influence of D-allose upon the retina in a temporary eye ischemia model (rat). (2) Method: The temporary eye ischemia model was prepared by raising the intraocular pressure up to a level of about 120 mmHg. The model was subjected to ischemia for 45 minutes and then to reperfusion. The concentration of glutamate released in the ischemia-reperfusion process was measured by the microdialysis method.

SMILES	HL60 cell number relative to glucose (HL-60; 0.05 mM)	HL60 cell number relative to glucose (HL-60; 0.5 mM)	HL60 cell number relative to glucose (HL-60; 5 mM)	HL60 proliferation inhibitory effect (HL-60)	HL60 cell number relative to glucose (HL-60; 50 mM)	Daudi-cell proliferation inhibitory effect (Daudi)	concentration at which insulin secretion stimulus reached a plateau [1]	insulin secretion into culture medium ([1]; 24 hours)	other results
O=C(CO)[C@H](O)[C@H](O)[C@H](O)CO [D-psicose]	84.7%	80.7%	84.2%	showed an inhibitory effect	93.6%	showed no effect	11.2 mM	insulin was secreted depending on the D-psicose concentration; also recorded: a reaction of secreting insulin depending on the concentration of D-psicose was found	number of appearing microglias (microglia migration): reduced; insulin secretion with D-psicose added to glucose ([1]; glucose fixed at 11.2 mM, psicose 2.8-16.7 mM, 24 hours): further stimulated in an additive way; also recorded: further promoted; rise of glucose concentration on the serous membrane side (rat intestinal tract): significantly inhibited; blood sugar value in hyperglycemic state [2]: reduced more quickly; insulin concentration in hyperglycemic state [2]: an increase in the insulin secretion
O=C[C@H](O)[C@H](O)[C@H](O)[C@H](O)CO [D-allose]	62.6%	67.7%	41.5%	having the inhibitory effect	30.7%	having the inhibitory effect			HL60 proliferation inhibitory effect (HL-60; listed as allose): showed an inhibitory effect; Daudi cell number relative to glucose (Daudi; 0.05 mM): 85.9%; Daudi cell number relative to glucose (Daudi; 0.5 mM): 80.6%; Daudi cell number relative to glucose (Daudi; 5 mM): 62.2%; Daudi-cell proliferation inhibitory effect (Daudi; listed as allose): showed an inhibitory effect; Daudi cell number relative to glucose (Daudi; 50 mM): 3.9%; glutamate concentration during the reperfusion [3]: completely inhibited; glutamate concentration during the ischemia ([3]; 45 minutes ischemia, versus control): inhibited in comparison with that in the control
O=C[C@H](O)[C@@H](O)[C@H](O)[C@H](O)CO [D-glucose, reference compound]							11.2 mM	the insulin secretion from the cells was stimulated	
